Ends that are not written are not given here.
Columns and labels:
Format in all cases: cell-based
[1] = tested on: β-lactamase derepressed mutant (H547) of P. aeruginosa; experiment: microbe, parasite or virus in culture; conditions: Pseudomonas aeruginosa, read-out: MIC B MIC of Carb
Description: (§1) The biological activity of the peptides can be determined by standard methods known to those of skill in the art, such as Aminimal inhibitory concentration (MIC)≅ assay described in the present examples, whereby the lowest concentration at which no change in OD is observed for a given period of time is recorded as MIC. Alternatively, Afractional inhibitory concentration (FIC)≅ is also useful for determination of synergy between the peptides of the invention, or the peptides in combination with known antibiotics. FICs are performed by checkerboard titrations of peptides in one dimension of a microtiter plate, and of antibiotics in the other dimension, for example. The FIC is calculated by looking at the impact of one antibiotic on the MIC of the other and vice versa. […] Preferably, an FIC of less than 0.5 is obtained for synergism. As used herein, FIC can be determined as follows: [formula]
(§2) To test whether the peptides of the invention synergize with various antibiotics, the following method was employed. Fractional Inhibitory Concentration (FIC) was used to determine synergy of peptides combined with antibiotics (e.g., carbenicillin/ciprofloxacin) against Pseudomonas aeruginosa. The following methodology was followed:
(§3) (1) Determination of MIC of cationic peptides (MIC A):
(§4) 100 μl Mueller Hinton broth (MHB) was added per well
(§5) 12.5 μl of 10× test concentration peptide was added per well to get final peptide concentration of e.g., 128, 64, 32, . . . 0.025 μg/ml from row 1 to 11;
(§6) 10 μl of 10^−4 dilution of overnight bacterial culture was added per well.
(§7) (2) Determination of MIC of Carbenicillin/Ciprofloxacin (MIC B):
(§8) 100 μl MHB was added per well;
(§9) 100 μl of 2× test concentration of antibiotic was added in the first well of the row, and doubling dilutions performed across the plate from column 1 to 11;
(§10) (3) Determination of MIC of antibiotics (B) when combined with peptides at concentration A:
(§11) 100 μl Carbenicillin (512 μg/ml) or Ciprofloxacin (8 μg/ml) was added in each well of column 1; doubling dilutions were performed across the plate;
(§12) 100 μl of the peptide was added in all wells of row 1, mixed, and 100 μl withdrawn and added to row 2, etc., creating a checkerboard titration.
(§13) 10 μl of 10^−4 dilution of overnight culture was added per well;
(§14) plates were incubated at 37EC for 18-24 hours. Combination MIC values A and B were taken as the lowest concentration of drug that reduced bacterial growth by more than 50% in any given column.
(§15) (4) FIC index=FICA+FICB=(A)/MIC A+(B)/MIC B. An FIC index of approximately 0.5 or less indicates synergy; 1.0 reflects additivity; and >1.0 indicates antagonism.

[2] = tested on: mutant (Nal B, H744) of P. aeruginosa; experiment: microbe, parasite or virus in culture; conditions: Pseudomonas aeruginosa, read-out: MIC B MIC of Cipro
Description: as §1, §2, §3, §4, §5, §6, §7, §8, §9, §10, §11, §12, §13, §14, §15

[3] = tested on: P. aeruginosa efflux mutant (Nal B, H744); experiment: microbe, parasite or virus in culture
Description: as §1, §2, §3, §4, §5, §6, §7, §8, §9, §10, §11, §12, §13, §14, §15

[4] = tested on: Staphylococcus epidermidis (C621); conditions: Mueller Hinton Broth
Description: as §1
(§16) These peptides varied in activity (Table 11), however, the C-terminally capped pleurocidin especially and its N-terminally capped lysine derivative had much better activities against a variety of bacteria including Vibrio anguillarum (Va), Aeromonas salmonicida (As), Staphylococcus epidermidis (C621), Salmonella typhimurium wild type (C587) and phoP phoQ mutant (C610), and Pseudomonas aeruginosa wild type (K799) and outer membrane barrier altered (Z61). The antimicrobial peptide CEME, a fusion peptide made from portions of an insect defensin ceropin A and the bee venom peptide melittin (Piers and Hancock, Mol. Microbiol., 12:951-8, 1994), as well as the known antibiotics polymyxin B and gentamicin were used as controls. Replacing the pleurocidin N-terminus with the dermaseptin N-terminus had no effect. Replacing pleurocidin N-terminus with the ceratoxin N-terminus reduced activity. […] Amidating the C-terminus improved antimicrobial activity. Replacing the pleurocidin C-terminus with the misgurin C-terminus had no effect.
(§17) Bacteria included Vibrio anguillarum (Va), Aeromonas salmonicida (As), Staphylococcus epidermidis (C621), Salmonella typhimurium wild type (C587) and phoP phoQ mutant (C6 10), and Pseudomonas aeruginosa wild type (K799) and outer membrane barrier altered (Z61).

[5] = tested on: Pseudomonas aeruginosa wild type (K799); conditions: Mueller Hinton Broth
Description: as §1, §16, §17

Vibrio anguillarum (Va) = conditions: Mueller Hinton Broth
Description: as §1, §16, §17

[6] = tested on: Salmonella typhimurium phoP phoQ mutant (C610); conditions: Mueller Hinton Broth
Description: as §1, §16, §17

[7] = tested on: Aeromonas salmonicida (As); conditions: Mueller Hinton Broth
Description: as §1, §16, §17

[8] = tested on: Salmonella typhimurium wild type (C587); conditions: Mueller Hinton Broth
Description: as §1, §16, §17

[9] = tested on: Pseudomonas aeruginosa outer membrane barrier altered (Z61); conditions: Mueller Hinton Broth
Description: as §1, §16, §17

CC1(C)S[C@@H]2[C@H](NC(=O)C(C(=O)O)c3ccccc3)C(=O)N2[C@H]1C(=O)O (stereo partly drawn) [Carb, Carbenicillin, reference compound]
MIC [1]: 64 mg/L

O=C(O)c1cn(C2CC2)c2cc(N3CCNCC3)c(F)cc2c1=O [Cipro, ciprofloxacin, reference compound]
MIC [2]: 0.25 mg/L

CCn1cc(C(=O)O)c(=O)c2ccc(C)nc21 [Nal, nalidixic acid, reference compound]
MIC ([3]; Pseudomonas aeruginosa, read-out: MIC B MIC of Nal): 3200 mg/L
MIC B MIC of Nal ([3]; nalidixic acid alone, efflux mutant Nal B, H744, unit from method): 3200 mg/L

ALWKTMLKKAAHVGKHVGKAALGAAARRRK [DER-M]
MIC C621 [4]: 32 mg/L
MIC K799 [5]: 64 mg/L
MIC Va (Vibrio anguillarum (Va)): >64 mg/L
MIC C610 [6]: 0.5 mg/L
MIC As [7]: 2 mg/L
MIC C587 [8]: 32 mg/L
MIC Z61 [9]: 8 mg/L

ALWKTMLKKAAHVGKHVGKAALTHYL-NH2 [P-DER]
MIC C621 [4]: 4 mg/L
MIC K799 [5]: 16 mg/L
MIC Va (Vibrio anguillarum (Va)): 4 mg/L
MIC C610 [6]: 0.5 mg/L
MIC As [7]: 1 mg/L
MIC C587 [8]: 4 mg/L
MIC Z61 [9]: 8 mg/L

— patent US6818407B2, “Anti-endotoxic antimicrobial cationic peptides and methods of use therfor” (priority 1998, dated 2004)
